Measured values as given in US20230416329A1, “A PEPTIDE WITH DISULFIDE BONDS AND INHIBITORY ACTIVITY AGAINST SERINE PROTEASES, DERIVED HYBRID PEPTIDES THEREOF, AND USES THEREOF” (INSTITUTE OF MATERIA MEDICA , CHINESE ACADEMY OF MEDICAL …, priority 2020, published 2023).
Bridge positions count the residues as written; N and C are the ends. Peptide text beside a SMILES is read from it.

Experiments:
trypsin = biological target: T1, trypsin (Bos taurus, UniProt P00760); test: in vitro
T1 sequence (P00760 24-246): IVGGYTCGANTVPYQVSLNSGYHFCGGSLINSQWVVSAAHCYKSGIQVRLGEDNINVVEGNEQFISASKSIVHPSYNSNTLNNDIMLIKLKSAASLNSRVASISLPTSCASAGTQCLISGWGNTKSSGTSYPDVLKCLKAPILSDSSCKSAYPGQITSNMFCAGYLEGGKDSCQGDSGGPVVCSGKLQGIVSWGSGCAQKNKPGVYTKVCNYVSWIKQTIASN
Experimental: FIG. 17. […] At different time point, 25 μL aliquots was taken out, and 10% (v/v) TFA was added to terminate the reaction.
(§1) Mix by centrifugation at 8000 rpm for 30 seconds.
(§2) Arrange a certain volume of 0.05 μg/μL trypsin solution in another sterile EP. Incubate the EP tubes containing peptides and enzymes at 37° C. for 5 min, and separately add 6 μL of trypsin solution to each EP tube containing peptides and mix well. Start timing and extract 25 μL of reaction solution at 1.5, 3.0, 4.5, 6.0 and 9.0 min later, respectively. Add 3.75 μL of 10% TFA to terminate the reaction and mix well by centrifugation at 8000 rpm for 30 seconds.
as §2, with “and” for “and separately”, “9” for “6”, “6.0, 9.0, 15.0, 30.0,” for “6.0”, “60.0” for “9.0”
(§3) Referring to the experimental method in Example 5, in vitro stability of salmon Calcitonin analogs with oral administration activity to the enzymatic hydrolysis by trypsin, chymotrypsin and elastase were performed.
(§4) Referring to the experimental method in Example 5, in vitro stability of IL-17A inhibitory peptides towards the enzymatic hydrolysis by trypsin, chymotrypsin and elastase were performed.

chymotrypsin = chymotrypsin (Bos taurus, UniProt P00766); test: in vitro; settings: for Remaining peak area (%)/chymotrypsin: 0 h; for remaining at 0.025 h, 60 μM / remaining at 0.05 h, 60 μM / remaining at 0.075 h, 60 μM / remaining at 0.1 h, 60 μM / remaining at 0.15 h, 60 μM / remaining at 0.25 h, 60 μM / remaining at 0.5 h, 60 μM / remaining at 1 h, 60 μM: isolated enzyme chymotrypsin, pH 7.8, Remaining peak area (%)/chymotrypsin
Experimental: FIG. 18. […] At different time point, 25 μL aliquots was taken out, and 10% (v/v) TFA was added to terminate the reaction.
as §1
as §2, with “μg/μL chymotrypsin” for “μg/μL trypsin”, “and” for “and separately”, “add 3” for “add 6”
as §2, with “chymotrypsin” for “trypsin”, “then” for “separately”, “4.5” for “6”, “6.0, 9.0, 15.0, 30.0,” for “6.0”, “60.0” for “9.0”
as §3, §4

[1] = biological target: porcine pancreatic elastase (Sus scrofa, UniProt P00772); test: Elastase inhibitory activity of peptides (AAApNA hydrolysis; IC50, Ki, residual activity); assay type: biochemical
Sequence of porcine pancreatic elastase (P00772 27-266): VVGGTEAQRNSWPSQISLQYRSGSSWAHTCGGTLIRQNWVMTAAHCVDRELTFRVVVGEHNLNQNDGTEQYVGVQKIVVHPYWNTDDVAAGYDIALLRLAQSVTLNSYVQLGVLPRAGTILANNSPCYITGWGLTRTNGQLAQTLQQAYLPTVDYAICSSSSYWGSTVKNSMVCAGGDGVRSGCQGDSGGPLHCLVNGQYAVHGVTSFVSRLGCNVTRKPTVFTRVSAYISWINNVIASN
Experimental: The inhibition constants of various synthetic active peptide inhibitors (molecular scaffolds) against seine proteases were measured. The substrates N-succinyl-Ala-Ala-Pro-Phe-p-nitroaniline (AAPFpNA), Nα—Benzoyl-L-arginine-4-nitroaniline hydrochloride (BApNA) and N-succinyl-[…] (AAApNA) are used in competitive binding reaction to determine the inhibitory activities against α-chymotrypsin, bovine trypsin, and porcine pancreatic elastase, respectively. Experiments for α-chymotrypsin and bovine trypsin inhibition were measured in 20 mM CaCl2, 50 mM Tris-HCl buffer (pH 7.8), and that for porcine elastase inhibition was measured in 50 mM Tris-HCl buffer (pH 8.0). The concentration of the peptide was measured using optical density (OD) at 280 nm. The Michaelis constant (Km) of the enzyme hydrolysis substrate is calculated from the initial rate of substrate hydrolysis at 405 nm. The absorbance value of the substrate was measured at 405 nm after complete hydrolysis. All data were processed using nonlinear regression.
• (1) Added a total 198 μL of reaction buffer (20 mM CaCl2, 50 mM Tris-HCl (pH 8.0)) into the 96 well plate, followed by preheating at 37° C. for 15 min. Then added 2 μL of different concentrations of substrates (pNA, dissolved in DMSO), and mixed by centrifugation at 500 rpm for 1 min. Finally, the plate was incubated at 37° C. for 30 min, and the absorbance value at 405 nm was measured. In the 200 μL of reaction system, the final concentrations of pNA were 0, 0.025, 0.05, 0.075, 0.1, 0.125, 0.15, 0.175, and 0.2 mM, respectively. Make three repetitions for each concentration and plot the OD405 m value with pNA concentration to obtain the standard curve. • (2) Added a total 190 μL of reaction buffer (20 mM CaCl2, 50 mM Tris-HCl (pH 8.0)) and 8 μL of 4.375 μM elastase into the 96 well plate, followed by preheating at 37° C. for 5 min. Then added 2 μL of different concentrations of substrates (AAApNA, dissolved in DMSO), and mixed by centrifugation at 500 rpm for 1 min. Finally, the plate was incubated at 37° C. for 30 min, and the absorbance value at 405 nm was measured. In the 200 μL of reaction system, the final concentrations of AAApNA were 0, 0.125, 0.166, 0.2, 0.25, 0.33, 0.6, 0.75, and 1.25 mM, respectively. Make three repetitions for each concentration and plot the OD405 nm value with time to obtain the corresponding curve. Divide the slope of the curve by the slope of the standard curve and the enzyme concentration to obtain the initial velocity V0 (mM/(min*mM protein). Plot the initial velocity V0 with the concentration of substrate AAApNA using Prism software, and the Michaelis constant Km value of elastase hydrolyzing AAApNA was obtained.
• (1) Added a total 190 μL of different concentrations of peptides (ECs) against elastase and reaction buffer (20 mM CaCl2, 50 mM Tris-HCl buffer (pH 8.0)) into the pre-cold 96 well plate, followed by preheating at 37° C. for 5 min and centrifugated at 500 rpm for 1 min and allowed to stand for 4 minutes. Then added 8 μL of 12.5 μM elastase and incubated at 37° C. for 10 min and centrifugated at 500 rpm for 1 min and allowed to stand for 9 minutes. Finally, added 2 μL of 100 mM AAApNA, and mixed by centrifugation at 500 rpm for 1 min. The plate was incubated at 37° C. for 60 min, and the absorbance value at 405 nm was measured. Three repetitions were made, and only reaction buffer and substrate were added in the blank control as the minimum absorption value (Min OD405 nm); Only reaction buffer, enzyme and substrate were added in the negative control as the maximum absorption value (Max OD405 nm). • (2) In the 200 μL of reaction system, the final concentrations of elastase and AAApNA were 0.5 μM and 1 mM, respectively. • (3) Data statistics
Residual activity of enzyme (%)=(1−(Max OD405 nm−Sample OD405 nm)/(Max OD405 nm−Min OD405 nm))*100 […]

[2] = isolated enzyme trypsin, pH 7.8

Ki ([1]; read-out: Ki) [nM] | SMILES | stability towards trypsin hydrolysis (in words) (trypsin) | Remaining peak area (%)/chymotrypsin (chymotrypsin) [%] | remaining at 0.025 h, 60 μM (chymotrypsin) [%] | remaining at 0.05 h, 60 μM (chymotrypsin) [%] | remaining at 0.075 h, 60 μM (chymotrypsin) [%] | remaining at 0.1 h, 60 μM (chymotrypsin) [%] | remaining at 0.15 h, 60 μM (chymotrypsin) [%] | remaining at 0.25 h, 60 μM (chymotrypsin) [%] | remaining at 0.5 h, 60 μM (chymotrypsin) [%] | remaining at 1 h, 60 μM (chymotrypsin) [%] | Remaining peak area (%)/Trypsin (trypsin; 0 h) [%] | remaining at 0.025 h, 60 μM (trypsin; [2]) [%] | remaining at 0.05 h, 60 μM (trypsin; [2]) [%] | remaining at 0.075 h, 60 μM (trypsin; [2]) [%] | remaining at 0.1 h, 60 μM (trypsin; [2]) [%] | remaining at 0.15 h, 60 μM (trypsin; [2]) [%] | stability towards chymotrypsin hydrolysis (in words) (chymotrypsin) | inhibitory activity against elastase (in words) [1]
– | CC[C@H](C)[C@H](N)C(=O)N[C@@H](Cc1c[nH]cn1)C(=O)N[C@H](C(=O)N[C@H](C(=O)N[C@H](C(=O)N1CCC[C@H]1C(=O)N[C@@H](C)C(=O)N[C@@H](CC(=O)O)C(=O)N[C@@H](CC(C)C)C(=O)N[C@@H](Cc1c[nH]c2ccccc12)C(=O)N[C@@H](CC(=O)O)C(=O)N[C@@H](Cc1c[nH]c2ccccc12)C(=O)N[C@H](C(=O)N[C@@H](CC(N)=O)C(=O)NCC(=O)N[C@H]1CSSC[C@@H](C(=O)N[C@@H](Cc2ccccc2)C(=O)O)NC(=O)[C@H]([C@@H](C)CC)NC(=O)[C@@H]2CCCN2C(=O)[C@@H]2CCCN2C(=O)[C@H]([C@@H](C)CC)NC(=O)[C@H](CO)NC(=O)[C@H](CCCCN)NC(=O)[C@H]([C@@H](C)O)NC(=O)[C@H](C)NC(=O)[C@H](CCCNC(=N)N)NC(=O)CNC1=O)[C@@H](C)CC)[C@@H](C)CC)[C@@H](C)O)C(C)C [17A-BT] (H-IHVTIPADLWDWINGCGRATKSIPPICF-OH; disulfide 16-27) | tolerated to the degradation of corresponding serine proteases | 100.0 ± 0.0 | 69.6 ± 3 | 68.9 ± 4.8 | 48.1 ± 4.3 | 45.2 ± 1.3 | 42.9 ± 3 | 37 ± 1.7 | 26.4 ± 0.4 | 9.6 ± 0.8 | – | – | – | – | – | – | – | –
– | CC[C@H](C)[C@@H]1NC(=O)[C@H](CO)NC(=O)[C@H](Cc2ccc(O)cc2)NC(=O)[C@H]([C@@H](C)O)NC(=O)[C@@H](NC(=O)[C@H](Cc2ccccc2)NC(=O)CNC(=O)[C@@H]2CCCN2C(=O)[C@@H](NC(=O)CNC(=O)[C@H](CO)NC(=O)CNC(=O)[C@@H](NC(=O)[C@H](CC(N)=O)NC(=O)[C@@H](NC(=O)[C@H](CCCNC(=N)N)NC(=O)[C@@H]2CCCN2C(=O)[C@H](Cc2ccc(O)cc2)NC(=O)[C@@H](NC(=O)[C@H](CCC(N)=O)NC(=O)[C@H](CC(C)C)NC(=O)[C@H](CCCCN)NC(=O)[C@H](Cc2c[nH]cn2)NC(=O)[C@H](C)NC(=O)[C@H](CCC(=O)O)NC(=O)[C@H](CCC(N)=O)NC(=O)[C@H](CO)NC(=O)[C@H](CC(C)C)NC(=O)[C@H](CCCCN)NC(=O)CNC(=O)[C@H](CC(C)C)NC(=O)CNC(=O)[C@@H]2CSSC[C@H](N)C(=O)N[C@@H](CO)C(=O)N[C@@H](CC(N)=O)C(=O)N[C@@H](CC(C)C)C(=O)N[C@@H](CO)C(=O)N[C@@H]([C@@H](C)O)C(=O)N2)[C@@H](C)O)[C@@H](C)O)[C@@H](C)O)[C@@H](C)O)CSSC[C@@H](C(=O)N[C@@H](Cc2ccc(O)cc2)C(=O)NCC(=O)O)NC(=O)[C@H](CCC(N)=O)NC(=O)[C@@H]2CCCN2C(=O)[C@@H]2CCCN2C1=O [Cal-CH] | – | 100.0 ± 0.0 | 89.3 ± 2.9 | 90.9 ± 4.7 | 83.8 ± 0.4 | 82.2 ± 4.1 | 52.4 | 51.8 ± 0.4 | 51.2 ± 1.8 | 24.6 ± 0.5 | 100.0 ± 0.0 | 13.4 ± 2.3 | 0 | 0 | 0 | 0 | resistant to the corresponding protease degradation | –
330 | CC[C@H](C)[C@@H]1NC(=O)[C@H](CO)NC(=O)[C@H](C)NC(=O)[C@H]([C@@H](C)O)NC(=O)[C@@H](NC(=O)[C@@H](N)CC(C)C)CSSC[C@@H](C(=O)N[C@@H](Cc2ccc(O)cc2)C(=O)O)NC(=O)[C@H](CCC(N)=O)NC(=O)[C@@H]2CCCN2C(=O)[C@@H]2CCCN2C1=O [EC1] (H-LCTASIPPQCY-OH; disulfide 2-10; C-terminus assumed) | – | – | – | – | – | – | – | – | – | – | – | – | – | – | – | – | – | better inhibitory activity against Elastase
